Experimental data reported in US20090156501A1, “IDENTIFICATION OF LIGANDS BY SELECTIVE AMPLIFICATION OF CELLS TRANSFECTED WITH RECEPTORS” (ACADIA PHARMACEUTICALS, INC., priority 1999, published 2009).
Read-outs that look alike come from different tables or passages of the source.

Tests used:
Type in all cases: cell-based
[1] = biological target: T1, 5-HT2A receptor (Homo sapiens, UniProt P28223); experiment: R-SAT functional assay of the 5-HT2A receptor in NIH 3T3 cells (agonism and inverse agonism); settings: for 5-HT2A Receptor Negative Log EC50: Table 6, inverse agonism, 50 ng per well receptor DNA; for Negative Log EC50, inverse agonists at the 5-HT2A receptor: Table 5, inhibition of constitutive activity, mean of three dose response experiments ± standard error
T1 construct: expressed in transfected cells; host or cells: NIH 3T3 (mouse fibroblasts), transient transfection, PSI expression vector
T1 sequence (P28223 whole entry): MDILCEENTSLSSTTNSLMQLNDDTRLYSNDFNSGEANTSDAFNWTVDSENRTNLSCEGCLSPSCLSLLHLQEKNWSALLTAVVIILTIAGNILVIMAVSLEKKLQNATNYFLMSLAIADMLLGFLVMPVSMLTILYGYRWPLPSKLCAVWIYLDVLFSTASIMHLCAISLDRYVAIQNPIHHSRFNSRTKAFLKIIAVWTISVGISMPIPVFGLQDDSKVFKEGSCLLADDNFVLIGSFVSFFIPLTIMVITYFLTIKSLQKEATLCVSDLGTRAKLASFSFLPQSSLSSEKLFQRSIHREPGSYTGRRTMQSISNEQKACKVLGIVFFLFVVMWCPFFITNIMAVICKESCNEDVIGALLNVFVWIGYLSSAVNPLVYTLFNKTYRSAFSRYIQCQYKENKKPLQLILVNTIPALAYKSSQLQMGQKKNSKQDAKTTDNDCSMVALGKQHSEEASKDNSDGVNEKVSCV

[2] = biological target: T2, 5-HT2C receptor (Homo sapiens, UniProt P28335); experiment: R-SAT functional assay of the 5-HT2C receptor (inverse agonism); settings: Table 6, 50 ng per well receptor DNA
T2 construct: expressed in transfected cells; PSI mammalian expression vector
T2 sequence (P28335 33-458): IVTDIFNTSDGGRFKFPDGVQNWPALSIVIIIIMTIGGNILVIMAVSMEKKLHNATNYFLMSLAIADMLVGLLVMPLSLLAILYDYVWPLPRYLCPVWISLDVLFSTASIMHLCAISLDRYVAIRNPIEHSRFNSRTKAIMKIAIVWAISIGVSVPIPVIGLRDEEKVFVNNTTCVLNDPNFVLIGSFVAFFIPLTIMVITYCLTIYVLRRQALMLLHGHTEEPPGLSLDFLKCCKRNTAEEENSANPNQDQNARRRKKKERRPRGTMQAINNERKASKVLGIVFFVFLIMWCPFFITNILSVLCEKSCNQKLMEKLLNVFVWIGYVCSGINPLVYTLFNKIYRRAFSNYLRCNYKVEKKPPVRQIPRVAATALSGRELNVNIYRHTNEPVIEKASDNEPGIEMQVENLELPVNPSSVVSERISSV

[3] = biological target: T3, α2-C10 adrenergic receptor (Homo sapiens, UniProt P08913); experiment: Single Receptor Format amplification assay, alpha 2 C10; settings: for EC50: Table 3, 8-10 concentrations, 3-4 replicates, read-out: Agonist EC50 nM, α2-C10; for Max Response, α2-C10: relative to other ligands at the given receptor
T3 construct: expressed in transfected cells; host or cells: NIH 3T3
T3 sequence (P08913 1-465): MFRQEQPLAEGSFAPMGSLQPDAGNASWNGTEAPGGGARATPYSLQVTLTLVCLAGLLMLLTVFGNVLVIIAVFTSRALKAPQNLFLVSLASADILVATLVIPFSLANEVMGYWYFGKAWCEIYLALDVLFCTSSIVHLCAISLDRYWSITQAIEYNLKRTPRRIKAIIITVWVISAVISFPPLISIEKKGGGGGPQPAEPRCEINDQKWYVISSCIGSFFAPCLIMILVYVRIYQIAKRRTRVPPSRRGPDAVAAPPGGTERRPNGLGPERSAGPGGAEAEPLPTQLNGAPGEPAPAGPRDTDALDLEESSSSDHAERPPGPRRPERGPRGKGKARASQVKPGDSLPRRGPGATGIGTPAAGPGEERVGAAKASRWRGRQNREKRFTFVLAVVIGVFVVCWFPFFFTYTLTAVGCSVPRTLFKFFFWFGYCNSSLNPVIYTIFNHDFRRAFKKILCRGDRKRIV

[4] = biological target: T4, α2-C2 adrenergic receptor (Homo sapiens, UniProt P18089); experiment: Single Receptor Format amplification assay, alpha 2 C2; settings: for EC50: Table 3, 8-10 concentrations, 3-4 replicates, read-out: Agonist EC50 nM, α2-C2
T4 construct: expressed in transfected cells; host or cells: NIH 3T3
T4 sequence (P18089 1-450): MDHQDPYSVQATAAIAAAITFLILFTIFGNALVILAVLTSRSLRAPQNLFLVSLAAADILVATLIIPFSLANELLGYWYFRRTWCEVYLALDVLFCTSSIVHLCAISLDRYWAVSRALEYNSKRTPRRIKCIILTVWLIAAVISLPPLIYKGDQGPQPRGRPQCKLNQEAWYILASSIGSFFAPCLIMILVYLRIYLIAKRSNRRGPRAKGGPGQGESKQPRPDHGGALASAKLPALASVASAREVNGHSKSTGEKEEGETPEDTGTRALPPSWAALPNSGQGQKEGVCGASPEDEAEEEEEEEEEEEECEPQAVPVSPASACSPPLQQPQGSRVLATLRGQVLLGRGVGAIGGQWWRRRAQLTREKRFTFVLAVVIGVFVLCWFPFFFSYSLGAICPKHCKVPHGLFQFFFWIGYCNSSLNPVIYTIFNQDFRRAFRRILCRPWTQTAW

[5] = biological target: T5, α2-C4 adrenergic receptor (Homo sapiens, UniProt P18825); experiment: Single Receptor Format amplification assay, alpha 2 C4; settings: for EC50: Table 3, 8-10 concentrations, 3-4 replicates, read-out: Agonist EC50 nM, α2-C4; for Max Response, α2-C4: relative to other ligands at the given receptor
T5 construct: expressed in transfected cells; host or cells: NIH 3T3
T5 sequence (P18825 1-462): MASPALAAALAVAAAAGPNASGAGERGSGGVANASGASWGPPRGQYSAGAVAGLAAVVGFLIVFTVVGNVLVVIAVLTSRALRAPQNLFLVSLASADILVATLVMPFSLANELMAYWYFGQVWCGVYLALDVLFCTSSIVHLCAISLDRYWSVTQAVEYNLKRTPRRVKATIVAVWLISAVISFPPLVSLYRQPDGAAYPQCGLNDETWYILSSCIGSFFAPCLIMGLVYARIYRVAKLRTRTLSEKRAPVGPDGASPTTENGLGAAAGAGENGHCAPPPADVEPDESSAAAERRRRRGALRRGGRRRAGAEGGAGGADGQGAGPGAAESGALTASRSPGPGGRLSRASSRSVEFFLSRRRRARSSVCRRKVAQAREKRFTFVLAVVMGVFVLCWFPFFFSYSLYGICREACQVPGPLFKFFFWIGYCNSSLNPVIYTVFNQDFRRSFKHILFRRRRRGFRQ

[6] = compounds at 300-500 nM, 50 ng/well receptor DNA, inhibition from basal, referenced to ritanserin (90-100%), mean of duplicates
[7] = relative to other ligands at the given receptor
[8] = compounds at 300-500 nM, 50 ng/well receptor DNA, […], mean of duplicates

## N[C@@H](Cc1c[nH]c2ccc(O)cc12)C(=O)O [5-hydroxy-Ltryptophan]
[1]; [6]
  % INHIBITION, screen for inverse agonism at 5-HT2A receptors: 53%

## CCNC(=O)N1CCN(CCCC(c2ccc(F)cc2)c2ccc(F)cc2)CC1 [Amperozide]
[2]
  5-HT2C Receptor Negative Log EC50: No Intrinsic

## C=CCN1CCc2nc(N)sc2CC1 [BHT 920]
[3]
  EC50: > 10000 nM
  Max Response, α2-C10: +++
[4]; [7]
  Max Response, α2-C2: +++
[5]
  EC50: > 10000 nM
  Max Response, α2-C4: +++

## CCN1CCc2nc(N)oc2CC1 [BHT 933]
[3]
  EC50: > 10000 nM
  Max Response, α2-C10: ++
[4]
  EC50: > 10000 nM
[4]; [7]
  Max Response, α2-C2: +++

## O=C(CCCN1CCC(O)(c2ccc(Br)cc2)CC1)c1ccc(F)cc1 [Bromperidol]
[2]
  5-HT2C Receptor Negative Log EC50: No Intrinsic

## CN(C)CCCSc1ccccc1NC(=O)/C=C/c1ccccc1 [CINANSERIN]
[1]; [6]
  % INHIBITION, screen for inverse agonism at 5-HT2A receptors: 75%

## CCN(CC)CCCN1c2ccccc2Sc2ccc(Cl)cc21 [Chlorproethizene]
[1]
  5-HT2A Receptor Negative Log EC50: 7.70 ± 0.33
[2]
  5-HT2C Receptor Negative Log EC50: <5.0

## OCCN1CCN(CC/C=C2/c3ccccc3Sc3ccc(C(F)(F)F)cc32)CC1 [Cis-Flupentixol]
[1]
  Negative Log EC50, inverse agonists at the 5-HT2A receptor: 8.04 ± 0.10 molar
  5-HT2A Receptor Negative Log EC50: 8.04 ± 0.10
[1]; [8]
  % INHIBITION, screen for inverse agonism at 5-HT2A receptors: 45%
[2]
  5-HT2C Receptor Negative Log EC50: No Intrinsic

## Clc1cccc(Cl)c1N=C1NCCN1 [Clonidine]
[5]
  Max Response, α2-C4: ++

## Cc1cccc([C@H](C)c2cnc[nH]2)c1C [Dexmedetomidine]
[3]
  Max Response, α2-C10: ±
[4]
  Max Response, α2-C2: 2/+++
[5]
  Max Response, α2-C4: ±

## O=C1NCN(c2ccccc2)C12CCN(CCCC(c1ccc(F)cc1)c1ccc(F)cc1)CC2 [Fluspirilene]
[1]; [6]
  % INHIBITION, screen for inverse agonism at 5-HT2A receptors: 57%

## N=C(N)NC(=O)Cc1c(Cl)cccc1Cl [Guanfacine]
[5]
  Max Response, α2-C4: ±

## CC(C)NCC(O)c1ccc(O)c(O)c1 (stereo not shown) [Isoproterenol]
[5]
  Max Response, α2-C4: +

## O=C(c1ccc(F)cc1)C1CCN(CCn2c(=O)[nH]c3ccccc3c2=O)CC1 [KETANSERIN]
[1]; [6]
  % INHIBITION, screen for inverse agonism at 5-HT2A receptors: 82%

## CN1CCN(C2=Nc3ccccc3Oc3ccc(Cl)cc32)CC1 [Loxapine]
[1]; [6]
  % INHIBITION, screen for inverse agonism at 5-HT2A receptors: 77%

## CSc1ccc2c(c1)C(N1CCN(C)CC1)Cc1ccccc1S2 (stereo not shown) [METHIOTHEPIN]
[1]
  % INHIBITION, screen for inverse agonism at 5-HT2A receptors: 79%

## NCCC1CCCC(CCN)N1 (stereo not shown) [Mdl 26,630 3HCl]
[1]; [6]
  % INHIBITION, screen for inverse agonism at 5-HT2A receptors: 75%

## CC1CCN(CCCC(=O)c2ccc(F)cc2)CC1 [Melperone]
[2]
  5-HT2C Receptor Negative Log EC50: No Intrinsic

## CN1CCCCC1CCN1c2ccccc2Sc2ccc([S+](C)[O-])cc21 (stereo not shown) [Mesioridazine]
[1]
  5-HT2A Receptor Negative Log EC50: 7.00 ± 0.30
[2]
  5-HT2C Receptor Negative Log EC50: No Intrinsic

## Cc1ccc(C2(O)CCN(CCCC(=O)c3ccc(F)cc3)CC2)cc1 [Moperone]
[2]
  5-HT2C Receptor Negative Log EC50: No Intrinsic

## NC[C@H](O)c1ccc(O)c(O)c1 [Norepinephrine]
[4]
  EC50: 7200 nM
[4]; [7]
  Max Response, α2-C2: ++
[5]
  EC50: 2 nM
  Max Response, α2-C4: +

## CN1CCN(C2Cc3ccccc3Sc3ccc(Cl)cc32)CC1.O=C(O)/C=C\C(=O)O (stereo not shown) [Octoclothepin]
[1]
  5-HT2A Receptor Negative Log EC50: 9.74 ± 0.98
[1]; [8]
  % INHIBITION, screen for inverse agonism at 5-HT2A receptors: 76%

## Cc1cc(C(C)(C)C)c(O)c(C)c1CC1=NCCN1 [Oxymetazoline]
[5]
  Max Response, α2-C4: +

## Cc1nc2ccccn2c(=O)c1CCN1CCC(C(=O)c2ccc(F)cc2)CC1 [PIRENPIRONE]
[1]; [6]
  % INHIBITION, screen for inverse agonism at 5-HT2A receptors: 92%

## COc1cc2nc(N3CCN(C(=O)c4ccco4)CC3)nc(N)c2cc1OC [Prazocin]
[3]
  Max Response, α2-C10: ±
[5]
  Max Response, α2-C4: ++

## CN(C)CCCN1c2ccccc2Sc2ccccc21 [Promazine]
[2]
  5-HT2C Receptor Negative Log EC50: Agonist

## CN(C)CCCN1c2ccccc2Sc2cccnc21 [Prothypendyl]
[1]
  5-HT2A Receptor Negative Log EC50: 6.60 ± 0.44
[2]
  5-HT2C Receptor Negative Log EC50: Agonist

## C1COC(NC(C2CC2)C2CC2)=N1 [Rilmenidine]
[3]
  Max Response, α2-C10: ±
[4]; [7]
  Max Response, α2-C2: ±
[5]
  EC50: 480 nM
  Max Response, α2-C4: +

## O=C(CCCN1CCC2(CC1)C(=O)NCN2c1ccccc1)c1ccc(F)cc1 [Spiperone]
[1]; [6]
  % INHIBITION, screen for inverse agonism at 5-HT2A receptors: 82%
[2]
  5-HT2C Receptor Negative Log EC50: No Intrinsic

## CCN1CCCC1CNC(=O)c1cc(S(N)(=O)=O)ccc1OC (stereo not shown) [Sulpiride]
[2]
  5-HT2C Receptor Negative Log EC50: No Intrinsic

## CN1CCN(CC/C=C2/c3ccccc3Sc3ccc(S(=O)(=O)N(C)C)cc32)CC1 [Thiothixene]
[2]
  5-HT2C Receptor Negative Log EC50: No Intrinsic

## OCCN1CCN(CC/C=C2\c3ccccc3Sc3ccc(C(F)(F)F)cc32)CC1 [Trans-Flupentixol]
[1]
  Negative Log EC50, inverse agonists at the 5-HT2A receptor: 6.77 ± 0.21 molar
  5-HT2A Receptor Negative Log EC50: 6.77 ± 0.21
[2]
  5-HT2C Receptor Negative Log EC50: 5.55 ± 0.37

## O=C(CCCN1CCC(O)(c2cccc(C(F)(F)F)c2)CC1)c1ccc(F)cc1 [Triflouperidol]
[1]
  % INHIBITION, screen for inverse agonism at 5-HT2A receptors: 96%

## Nc1cc(Cl)c(N=C2NCCN2)c(Cl)c1 [p-NH2-Clonidine]
[3]
  Max Response, α2-C10: ±
[5]
  Max Response, α2-C4: ±

## Cc1nc2sccn2c(=O)c1CCN1CCC(=C(c2ccc(F)cc2)c2ccc(F)cc2)CC1 [ritanserin]
[1]; [6]
  % INHIBITION, screen for inverse agonism at 5-HT2A receptors: 90%
[1]; receptor signaling relative to baseline (no drug)
  intrinsic activity at the 5-HT2A receptor (inverse agonism): inverse agonist

## JL-18
[2]
  5-HT2C Receptor Negative Log EC50: 6.09 ± 0.45
